Experimental data: patent US20230085307A1, “PYRIDAZINONE COMPOUND AND HERBICIDE” (NISSAN CHEMICAL CORPORATION, priority 2019, published 2023)

What was measured:
barnyard grass [1] = test: Test Example 3: herbicidal effect by foliage application, Wagner pot (Table 18, symbol H); type: in vivo, barnyard grass (Echinochloa crus-galli)
How it was run: (§1)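 Plants were sown in alluvial soil held under 0.1–0.5 cm standing water and grown 14 days in a greenhouse at 25–30 °C. An emulsifiable formulation, water-diluted to the set dose, was then sprayed onto the foliage, and effects were scored three weeks later using previously defined criteria.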

Chinese sprangletop = test: Test Example 3: herbicidal effect by foliage application, Wagner pot (Table 18, symbol D); type: in vivo, chinese sprangletop (Leptochloa chinensis)
How it was run: as §1

rice flat sedge = test: Test Example 3: herbicidal effect by foliage application, Wagner pot (Table 18, symbol E); type: in vivo, rice flat sedge (Cyperus iria)
How it was run: as §1

southern crabgrass [2] = test: Test Example 4: herbicidal effect by soil treatment (Table 19, symbol F); type: in vivo, southern crabgrass (Digitaria ciliaris); details: amount of applied herbicide 320 g/ha
How it was run: (§2)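 Emulsion of test compound, water-diluted to predetermined amount, sprayed on soil after sowing (seed depth ~1.5 cm, sterilized diluvial soil). Greenhouse, 25–30° C. Effect graded at three weeks post-spray.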

green foxtail [3] = test: Test Example 4: herbicidal effect by soil treatment (Table 19, symbol G); type: in vivo, green foxtail (Setaria viridis); details: amount of applied herbicide 320 g/ha
How it was run: as §2

barnyard grass [4] = test: Test Example 4: herbicidal effect by soil treatment (Table 19, symbol H); type: in vivo, barnyard grass (Echinochloa crus-galli); details: amount of applied herbicide 320 g/ha
How it was run: as §2

wild oat [5] = test: Test Example 4: herbicidal effect by soil treatment (Table 19, symbol I); type: in vivo, wild oat (Avena fatua); details: amount of applied herbicide 320 g/ha
How it was run: as §2

blackgrass [6] = test: Test Example 4: herbicidal effect by soil treatment (Table 19, symbol J); type: in vivo, blackgrass (Alopecurus myosuroides); details: amount of applied herbicide 320 g/ha
How it was run: as §2

Italian ryegrass [7] = test: Test Example 4: herbicidal effect by soil treatment (Table 19, symbol K); type: in vivo, Italian ryegrass (Lolium multiflorum); details: amount of applied herbicide 320 g/ha
How it was run: as §2

windgrass [8] = test: Test Example 4: herbicidal effect by soil treatment (Table 19, symbol L); type: in vivo, windgrass (Apera spica-venti); details: amount of applied herbicide 320 g/ha
How it was run: as §2

velvetleaf [9] = test: Test Example 4: herbicidal effect by soil treatment (Table 19, symbol M); type: in vivo, velvetleaf (Abutilon theophrasti); details: amount of applied herbicide 320 g/ha
How it was run: as §2

redroot pigweed [10] = test: Test Example 4: herbicidal effect by soil treatment (Table 19, symbol N); type: in vivo, redroot pigweed (Amaranthus retroflexus); details: amount of applied herbicide 320 g/ha
How it was run: as §2

lambsquarters [11] = test: Test Example 4: herbicidal effect by soil treatment (Table 19, symbol O); type: in vivo, lambsquarters (Chenopodium album); details: amount of applied herbicide 320 g/ha
How it was run: as §2

chickweed [12] = test: Test Example 4: herbicidal effect by soil treatment (Table 19, symbol P); type: in vivo, common chickweed (Stellaria media); details: amount of applied herbicide 320 g/ha
How it was run: as §2

false cleavers [13] = test: Test Example 4: herbicidal effect by soil treatment (Table 19, symbol Q); type: in vivo, false cleavers (Galium spurium); details: amount of applied herbicide 320 g/ha
How it was run: as §2

persian speedwell [14] = test: Test Example 4: herbicidal effect by soil treatment (Table 19, symbol R); type: in vivo, Persian speedwell (Veronica persica); details: amount of applied herbicide 320 g/ha
How it was run: as §2

southern crabgrass [15] = test: Test Example 5: herbicidal effect by foliage application, plastic box (Table 20, symbol F); type: in vivo, southern crabgrass (Digitaria ciliaris); details: foliage application, 320 g/ha, evaluated three weeks after application
How it was run: (§3)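 Post-emergence foliar test in sterilized diluvial soil. Compound applied as water-diluted emulsion at a predetermined rate to 14-day-old plants; evaluation at three weeks.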

green foxtail [16] = test: Test Example 5: herbicidal effect by foliage application, plastic box (Table 20, symbol G); type: in vivo, green foxtail (Setaria viridis); details: foliage application, 320 g/ha, evaluated three weeks after application
How it was run: as §3

barnyard grass [17] = test: Test Example 5: herbicidal effect by foliage application, plastic box (Table 20, symbol H); type: in vivo, barnyard grass (Echinochloa crus-galli); details: foliage application, 320 g/ha, evaluated three weeks after application
How it was run: as §3

wild oat [18] = test: Test Example 5: herbicidal effect by foliage application, plastic box (Table 20, symbol I); type: in vivo, wild oat (Avena fatua); details: foliage application, 320 g/ha, evaluated three weeks after application
How it was run: as §3

blackgrass [19] = test: Test Example 5: herbicidal effect by foliage application, plastic box (Table 20, symbol J); type: in vivo, blackgrass (Alopecurus myosuroides); details: foliage application, 320 g/ha, evaluated three weeks after application
How it was run: as §3

Italian ryegrass [20] = test: Test Example 5: herbicidal effect by foliage application, plastic box (Table 20, symbol K); type: in vivo, Italian ryegrass (Lolium multiflorum); details: foliage application, 320 g/ha, evaluated three weeks after application
How it was run: as §3

windgrass [21] = test: Test Example 5: herbicidal effect by foliage application, plastic box (Table 20, symbol L); type: in vivo, windgrass (Apera spica-venti); details: foliage application, 320 g/ha, evaluated three weeks after application
How it was run: as §3

velvetleaf [22] = test: Test Example 5: herbicidal effect by foliage application, plastic box (Table 20, symbol M); type: in vivo, velvetleaf (Abutilon theophrasti); details: foliage application, 320 g/ha, evaluated three weeks after application
How it was run: as §3

redroot pigweed [23] = test: Test Example 5: herbicidal effect by foliage application, plastic box (Table 20, symbol N); type: in vivo, redroot pigweed (Amaranthus retroflexus); details: foliage application, 320 g/ha, evaluated three weeks after application
How it was run: as §3

lambsquarters [24] = test: Test Example 5: herbicidal effect by foliage application, plastic box (Table 20, symbol O); type: in vivo, lambsquarters (Chenopodium album); details: foliage application, 320 g/ha, evaluated three weeks after application
How it was run: as §3

chickweed [25] = test: Test Example 5: herbicidal effect by foliage application, plastic box (Table 20, symbol P); type: in vivo, common chickweed (Stellaria media); details: foliage application, 320 g/ha, evaluated three weeks after application
How it was run: as §3

false cleavers [26] = test: Test Example 5: herbicidal effect by foliage application, plastic box (Table 20, symbol Q); type: in vivo, false cleavers (Galium spurium); details: foliage application, 320 g/ha, evaluated three weeks after application
How it was run: as §3

persian speedwell [27] = test: Test Example 5: herbicidal effect by foliage application, plastic box (Table 20, symbol R); type: in vivo, Persian speedwell (Veronica persica); details: foliage application, 320 g/ha, evaluated three weeks after application
How it was run: as §3

[28] = amount of applied herbicide 320 g/ha

CCOc1ccccc1-c1sc2ccc(Cl)cc2c1-c1c(O)c(C)nn(C)c1=O [2-105]
herbicidal effect on H (barnyard grass), rating 0-5 (barnyard grass [1]; 320 g/ha): 4 (Herbicidal rate of 70% or more and less than 90%)
herbicidal effect on D (Chinese sprangletop), rating 0-5 (Chinese sprangletop; 320 g/ha): 0 (Herbicidal rate of 5% or less (almost no effect))
herbicidal effect on E (rice flat sedge), rating 0-5 (rice flat sedge; 320 g/ha): 3 (Herbicidal rate of 40% or more and less than 70%)
F: southern crabgrass, herbicidal effect rating (southern crabgrass [2]): 3 (Herbicidal rate of 40% or more and less than 70%)
G: green foxtail, herbicidal effect rating (green foxtail [3]): 2 (Herbicidal rate of 20% or more and less than 40%)
H: barnyard grass, herbicidal effect rating (barnyard grass [4]): 3 (Herbicidal rate of 40% or more and less than 70%)
I: wild oat, herbicidal effect rating (wild oat [5]): 0 (Herbicidal rate of 5% or less (almost no effect))
J: blackgrass, herbicidal effect rating (blackgrass [6]): 0 (Herbicidal rate of 5% or less (almost no effect))
K: Italian ryegrass, herbicidal effect rating (Italian ryegrass [7]): 0 (Herbicidal rate of 5% or less (almost no effect))
L: windgrass, herbicidal effect rating (windgrass [8]): 0 (Herbicidal rate of 5% or less (almost no effect))
M: velvetleaf, herbicidal effect rating (velvetleaf [9]): 3 (Herbicidal rate of 40% or more and less than 70%)
N: redroot pigweed, herbicidal effect rating (redroot pigweed [10]): 5 (Herbicidal rate of 90% or more (almost completely withered))
O: lambsquarters, herbicidal effect rating (lambsquarters [11]): 4 (Herbicidal rate of 70% or more and less than 90%)
P: chickweed, herbicidal effect rating (chickweed [12]): 3 (Herbicidal rate of 40% or more and less than 70%)
Q: false cleavers, herbicidal effect rating (false cleavers [13]): 4 (Herbicidal rate of 70% or more and less than 90%)
R: persian speedwell, herbicidal effect rating (persian speedwell [14]): 3 (Herbicidal rate of 40% or more and less than 70%)
herbicidal effect on F: southern crabgrass (southern crabgrass [15]): 4 (Herbicidal rate of 70% or more and less than 90%)
herbicidal effect on G: green foxtail (green foxtail [16]): 0 (Herbicidal rate of 5% or less (almost no effect))
herbicidal effect on H: barnyard grass (barnyard grass [17]): 0 (Herbicidal rate of 5% or less (almost no effect))
herbicidal effect on I: wild oat (wild oat [18]): 1 (Herbicidal rate of 5% or more and less than 20%)
herbicidal effect on J: blackgrass (blackgrass [19]): 0 (Herbicidal rate of 5% or less (almost no effect))
herbicidal effect on K: Italian ryegrass (Italian ryegrass [20]): 0 (Herbicidal rate of 5% or less (almost no effect))
herbicidal effect on L: windgrass (windgrass [21]): 0 (Herbicidal rate of 5% or less (almost no effect))
herbicidal effect on M: velvetleaf (velvetleaf [22]): 5 (Herbicidal rate of 90% or more (almost completely withered))
herbicidal effect on N: redroot pigweed (redroot pigweed [23]): 5 (Herbicidal rate of 90% or more (almost completely withered))
herbicidal effect on O: lambsquarters (lambsquarters [24]): 3 (Herbicidal rate of 40% or more and less than 70%)
herbicidal effect on P: chickweed (chickweed [25]): 5 (Herbicidal rate of 90% or more (almost completely withered))
herbicidal effect on Q: false cleavers (false cleavers [26]): 5 (Herbicidal rate of 90% or more (almost completely withered))
herbicidal effect on R: persian speedwell (persian speedwell [27]): 5 (Herbicidal rate of 90% or more (almost completely withered))

CCCC(=O)Oc1c(C)nn(C)c(=O)c1-c1c(-c2ccc(OC)c(OC)c2)sc2ccc(Cl)cc12 [2-124]
herbicidal effect on H: barnyard grass (barnyard grass [1]; [28]): 3 (Herbicidal rate of 40% or more and less than 70%)
herbicidal effect on D: Chinese sprangletop (Chinese sprangletop; [28]): 1 (Herbicidal rate of 5% or more and less than 20%)
herbicidal effect on E: rice flat sedge (rice flat sedge; [28]): 0 (Herbicidal rate of 5% or less (almost no effect))
F: southern crabgrass, herbicidal effect rating (southern crabgrass [2]): 1 (Herbicidal rate of 5% or more and less than 20%)
G: green foxtail, herbicidal effect rating (green foxtail [3]): 0 (Herbicidal rate of 5% or less (almost no effect))
H: barnyard grass, herbicidal effect rating (barnyard grass [4]): 0 (Herbicidal rate of 5% or less (almost no effect))
I: wild oat, herbicidal effect rating (wild oat [5]): 0 (Herbicidal rate of 5% or less (almost no effect))
J: blackgrass, herbicidal effect rating (blackgrass [6]): 0 (Herbicidal rate of 5% or less (almost no effect))
K: Italian ryegrass, herbicidal effect rating (Italian ryegrass [7]): 0 (Herbicidal rate of 5% or less (almost no effect))
L: windgrass, herbicidal effect rating (windgrass [8]): 0 (Herbicidal rate of 5% or less (almost no effect))
M: velvetleaf, herbicidal effect rating (velvetleaf [9]): 0 (Herbicidal rate of 5% or less (almost no effect))
N: redroot pigweed, herbicidal effect rating (redroot pigweed [10]): 0 (Herbicidal rate of 5% or less (almost no effect))
O: lambsquarters, herbicidal effect rating (lambsquarters [11]): 3 (Herbicidal rate of 40% or more and less than 70%)
P: chickweed, herbicidal effect rating (chickweed [12]): 0 (Herbicidal rate of 5% or less (almost no effect))
Q: false cleavers, herbicidal effect rating (false cleavers [13]): 0 (Herbicidal rate of 5% or less (almost no effect))
R: persian speedwell, herbicidal effect rating (persian speedwell [14]): 0 (Herbicidal rate of 5% or less (almost no effect))
herbicidal effect on F: southern crabgrass (southern crabgrass [15]): 0 (Herbicidal rate of 5% or less (almost no effect))
herbicidal effect on G: green foxtail (green foxtail [16]): 0 (Herbicidal rate of 5% or less (almost no effect))
herbicidal effect on H: barnyard grass (barnyard grass [17]): 0 (Herbicidal rate of 5% or less (almost no effect))
herbicidal effect on I: wild oat (wild oat [18]): 0 (Herbicidal rate of 5% or less (almost no effect))
herbicidal effect on J: blackgrass (blackgrass [19]): 0 (Herbicidal rate of 5% or less (almost no effect))
herbicidal effect on K: Italian ryegrass (Italian ryegrass [20]): 0 (Herbicidal rate of 5% or less (almost no effect))
herbicidal effect on L: windgrass (windgrass [21]): 0 (Herbicidal rate of 5% or less (almost no effect))
herbicidal effect on M: velvetleaf (velvetleaf [22]): 1 (Herbicidal rate of 5% or more and less than 20%)
herbicidal effect on N: redroot pigweed (redroot pigweed [23]): 2 (Herbicidal rate of 20% or more and less than 40%)
herbicidal effect on O: lambsquarters (lambsquarters [24]): 0 (Herbicidal rate of 5% or less (almost no effect))
herbicidal effect on P: chickweed (chickweed [25]): 2 (Herbicidal rate of 20% or more and less than 40%)
herbicidal effect on Q: false cleavers (false cleavers [26]): 0 (Herbicidal rate of 5% or less (almost no effect))
herbicidal effect on R: persian speedwell (persian speedwell [27]): 5 (Herbicidal rate of 90% or more (almost completely withered))
